Test system: 282377-053-R-J1-PDC complex spheroids, viability
Test: Anticancer human tumor 282377-053-R-J1-PDC patient-derived colon adenocarcinoma cell line growth inhibition [GQUAD]
Details: for IC50: curve of first compound; for viability, T/C: stronger effect = lower value; active = viability on the fitted dose curve at most 10% of control; inactive = the rest
Description: DNA G-quadruplex Stabilizer Agents in Combinations in Complex Spheroids
A high-throughput screen of multi-cell type tumor spheroids was designed to identify active combinations of DNA G-quadruplex stabilizer agents and targeted small molecules. Complex spheroids include a stromal component modeled by human endothelial cells (HUVEC) and fibroblasts modeled by human mesenchymal stem cells (MSCs). The concentration ranges selected for each drug and investigational agent were based upon clinically achievable concentrations if the clinical Cmax of the agent was known.
Compounds. The drugs and investigational agents: pidnarulex (CX-5461; NSC782164), APTO-253 (NSC789042), BRACO-19 (NSC847499), peposertib (NSC802822), ceralasertib (NSC780249), elimusertib (NSC800525), camonsertib (NSC841442), AZD-1390 (NSC803789), olaparib (NSC753686), talazoparib (NSC767125), ART-558 (NSC835418), sotorasib (NSC818433), MRTX-1133 (NSC836407), SN-38 (NSC673596), topotecan (NSC609699), etoposide (NSC141540), doxorubicin (NSC123127), gemcitabine (NSC613327), 5-fluorouracil (NSC19893), paclitaxel (NSC125973), vemurafenib (NSC761431), panobinostat (NSC761190), R-306465 (JNJ-16241199; NSC773264), adavosertib (NSC754352), TP-3654 (NSC805149), carboplatin (NSC241240), KSQ-4279 (NSC840948), and staurosporine (NSC755774) were obtained from the National Cancer Institute (NCI) Developmental Therapeutics Program Chemical Repository (34). The FDA-approved anticancer drug set is available from the NCI Developmental Therapeutics Program. […] The stock solutions were prepared in dimethyl sulfoxide (DMSO, Sigma-Aldrich, St. Louis, MO, cat. D2650) at 800-fold the tested concentration and stored at -70 degrees C prior to their use. All drugs and investigational agents were tested over a range starting from a high concentration at or near the clinical Cmax and decreasing in half-log increments. If the clinical Cmax for an agent had not been determined, the highest concentration tested was 10 microM.
2.3 Cell Culture. All cells were maintained in an incubator at 37 degrees C and 5% CO2 with 95% humidity. The PDC lines were cultured according to standard operating procedures established by the NCI PDMR. All PDCs were thawed and cultured in Matrigel-coated flasks prepared with a working solution of 1X Ham's F-12 nutrient mix, without supplementation (Invitrogen, cat. 11765054), 100 U/mL penicillin-streptomycin (Invitrogen, cat. 15140122), and 2.5% Matrigel (Corning Inc., cat. 354248) for the first three passages. The 857933-349-R-J2-PDC line was cultured in 6C/Colon 1B media, which includes advanced DMEM/F-12 (Thermo Fisher Scientific, cat. 12634028), 10 mM HEPES (Thermo Fisher Scientific, cat. 15630080), 1X GlutaMAX supplement (Thermo Fisher Scientific, cat. 35050061), 0.1 mg/mL primocin (InvivoGen, cat. ant-pm-2), 10% defined fetal bovine serum, heat inactivated (HyClone Laboratories Inc., cat. SH30070.03HI), 50% L-WRN conditioned media (ATCC, cat. CRL-3276), 1.25 mM N-Acetyl-L-cysteine (Sigma-Aldrich, cat. A9165), 10 mM nicotinamide (Sigma-Aldrich, cat. N0636), 1X B-27 supplement (Thermo Fisher Scientific, cat. 17504044), 1X N-2 supplement (Thermo Fisher Scientific, cat. 17502048), 10 microM Y-27632 dihydrochloride (Tocris Bioscience, cat. 1254), and 50 ng/mL human EGF recombinant protein (Thermo Fisher Scientific, cat. PHG0311). The 485176-168-R4-J1-PDC line was cultured in Panc media, which includes all 6C/Colon 1B media components plus 100 ng/mL human FGF-10 (Thermo Fisher Scientific, cat. 100-26), 500 nM SB-431542 (Selleckchem, cat. S1067), and gastrin (Tocris, cat. 3006).
[…]

[1] = second compound 0.0316 µM, first compound 0.0316 µM
[2] = second compound 0.0316 µM, first compound 0.1 µM
[3] = second compound 0.0316 µM, first compound 0.316 µM
[4] = second compound 0.0316 µM, first compound 1 µM
[5] = second compound 0.0316 µM, first compound 3.16 µM
[6] = second compound 0.0316 µM, first compound 10 µM
[7] = second compound 0.1 µM, first compound 0.0316 µM
[8] = second compound 0.1 µM, first compound 0.1 µM
[9] = second compound 0.1 µM, first compound 0.316 µM
[10] = second compound 0.1 µM, first compound 1 µM
[11] = second compound 0.1 µM, first compound 3.16 µM
[12] = second compound 0.1 µM, first compound 10 µM
[13] = second compound 0.316 µM, first compound 0.0316 µM
[14] = second compound 0.316 µM, first compound 0.1 µM
[15] = second compound 0.316 µM, first compound 0.316 µM
[16] = second compound 0.316 µM, first compound 1 µM
[17] = second compound 0.316 µM, first compound 3.16 µM
[18] = second compound 0.316 µM, first compound 10 µM
[19] = second compound 1 µM, first compound 0.0316 µM
[20] = second compound 1 µM, first compound 0.1 µM
[21] = second compound 1 µM, first compound 0.316 µM
[22] = second compound 1 µM, first compound 1 µM
[23] = second compound 1 µM, first compound 3.16 µM
[24] = second compound 1 µM, first compound 10 µM
[25] = second compound 3.16 µM, first compound 0.0316 µM
[26] = second compound 3.16 µM, first compound 0.1 µM
[27] = second compound 3.16 µM, first compound 0.316 µM
[28] = second compound 3.16 µM, first compound 1 µM
[29] = second compound 3.16 µM, first compound 3.16 µM
[30] = second compound 3.16 µM, first compound 10 µM
[31] = second compound 10 µM, first compound 0.0316 µM
[32] = second compound 10 µM, first compound 0.1 µM
[33] = second compound 10 µM, first compound 0.316 µM
[34] = second compound 10 µM, first compound 1 µM
[35] = second compound 10 µM, first compound 3.16 µM
[36] = second compound 10 µM, first compound 10 µM
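Note: spheroids exposed to compounds for 7 days before readout.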
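Throughout, for viability, T/C: percent of vehicle DMSO control viability with 100% = untreated-like growth.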

O=c1[nH]cc(F)c(=O)[nH]1 + CN(C)c1ccc(Nc2c3ccc(NC(=O)CCN4CCCC4)cc3nc3cc(NC(=O)CCN4CCCC4)ccc23)cc1
> 10 µM: IC50 (second compound 0.0316 µM) | IC50 (second compound 0.1 µM) | IC50 (second compound 0.316 µM) | IC50 (second compound 1 µM) | IC50 (second compound 3.16 µM) | IC50 (second compound 10 µM)
inactive: viability, T/C [1] 95.5% | viability, T/C [2] 87.1% | viability, T/C [3] 110% | viability, T/C [4] 81% | viability, T/C [5] 73.4% | viability, T/C [6] 74.1% | viability, T/C [7] 101% | viability, T/C [8] 93.1% | viability, T/C [9] 104% | viability, T/C [10] 88.8% | viability, T/C [11] 74.5% | viability, T/C [12] 73.2% | viability, T/C [13] 106% | viability, T/C [14] 94.3% | viability, T/C [15] 106% | viability, T/C [16] 96% | viability, T/C [17] 67.8% | viability, T/C [18] 73.8% | viability, T/C [19] 108% | viability, T/C [20] 94.4% | viability, T/C [21] 106% | viability, T/C [22] 89.9% | viability, T/C [23] 77.8% | viability, T/C [24] 69% | viability, T/C [25] 83.1% | viability, T/C [26] 75.7% | viability, T/C [27] 89.2% | viability, T/C [28] 79.1% | viability, T/C [29] 68.2% | viability, T/C [30] 64.5% | viability, T/C [31] 92.8% | viability, T/C [32] 81.3% | viability, T/C [33] 88.5% | viability, T/C [34] 81.7% | viability, T/C [35] 70.1% | viability, T/C [36] 57.9%

COc1cc(C2c3cc4c(cc3C(OC3OC5COC(C)OC5C(O)C3O)C3COC(=O)C23)OCO4)cc(OC)c1O (centres undefined) + Cc1[nH]c2ccc(F)cc2c1-c1nc2c3cccnc3c3ncccc3c2[nH]1
1.23 µM: IC50 (second compound 3.16 µM)
inactive: viability, T/C [1] 99.9% | viability, T/C [2] 102% | viability, T/C [3] 104% | viability, T/C [4] 89% | viability, T/C [5] 66.5% | viability, T/C [6] 62.6% | viability, T/C [7] 94.3% | viability, T/C [8] 108% | viability, T/C [9] 83.5% | viability, T/C [10] 98.2% | viability, T/C [11] 76.4% | viability, T/C [12] 70.1% | viability, T/C [13] 102% | viability, T/C [14] 117% | viability, T/C [15] 96.2% | viability, T/C [16] 105% | viability, T/C [17] 76.9% | viability, T/C [18] 54.2% | viability, T/C [19] 113% | viability, T/C [20] 95.5% | viability, T/C [21] 95.2% | viability, T/C [22] 94.1% | viability, T/C [23] 72% | viability, T/C [24] 54.4% | viability, T/C [25] 72.5% | viability, T/C [26] 85.6% | viability, T/C [27] 73.5% | viability, T/C [28] 56% | viability, T/C [29] 24.8% | viability, T/C [30] 23.2% | viability, T/C [31] 52.7% | viability, T/C [32] 44% | viability, T/C [33] 63.8% | viability, T/C [34] 32.7% | viability, T/C [35] 16.1% | viability, T/C [36] 17.5%
0.384 µM: IC50 (second compound 10 µM)
> 10 µM: IC50 (second compound 0.0316 µM) | IC50 (second compound 0.1 µM) | IC50 (second compound 0.316 µM) | IC50 (second compound 1 µM)
